Experimental data as given in ChEMBL document CHEMBL6109078, “Pyrylium derivatives as outer membrane permeabilizers against MDR gram-negative bacteria via multi-target mode of action” (Eur J Med Chem, 2025).
Converted amounts (≈) assume the structure as drawn.

Key:
Format in all cases: functional
Acinetobacter baumannii [1] = assay: Antibacterial activity against Acinetobacter baumannii ATCC 19606 assessed as inhibition of bacterial growth by CLSI protocol based method
Escherichia coli [2] = assay: Antibacterial activity against Escherichia coli ATCC 25922 assessed as inhibition of bacterial growth by CLSI protocol based method
Escherichia coli [3] = assay: Antibacterial activity against ESBL positive Escherichia coli ATCC 35218 assessed as inhibition of bacterial growth by CLSI protocol based method
Klebsiella pneumoniae [4] = assay: Antibacterial activity against Klebsiella pneumoniae ATCC 700603 assessed as inhibition of bacterial growth by CLSI protocol based method
Klebsiella pneumoniae [5] = assay: Antibacterial activity against Klebsiella pneumoniae BAA ATCC 1706 assessed as inhibition of bacterial growth by CLSI protocol based method
Pseudomonas aeruginosa [6] = assay: Antibacterial activity Pseudomonas aeruginosa ATCC 27853 assessed as inhibition of bacterial growth by CLSI protocol based method
Pseudomonas aeruginosa [7] = assay: Antibacterial activity Pseudomonas aeruginosa PAO1 assessed as inhibition of bacterial growth by CLSI protocol based method
Acinetobacter baumannii [8] = assay: Antibacterial activity against multi-drug resistant Acinetobacter baumannii clinical isolate 5 assessed as inhibition of bacterial growth by CLSI protocol based method
Acinetobacter baumannii [9] = assay: Antibacterial activity against multi-drug resistant Acinetobacter baumannii clinical isolate 10 assessed as inhibition of bacterial growth by CLSI protocol based method
Acinetobacter baumannii [10] = assay: Antibacterial activity against multi-drug resistant Acinetobacter baumannii clinical isolate 2 assessed as inhibition of bacterial growth by CLSI protocol based method
Acinetobacter baumannii [11] = assay: Antibacterial activity against multi-drug resistant Acinetobacter baumannii clinical isolate 4 assessed as inhibition of bacterial growth by CLSI protocol based method
Acinetobacter baumannii [12] = assay: Antibacterial activity against multi-drug resistant Acinetobacter baumannii clinical isolate 51 assessed as inhibition of bacterial growth by CLSI protocol based method
Acinetobacter baumannii [13] = assay: Antibacterial activity against multi-drug resistant Acinetobacter baumannii clinical isolate 14 assessed as inhibition of bacterial growth by CLSI protocol based method
Acinetobacter baumannii [14] = assay: Antibacterial activity against multi-drug resistant Acinetobacter baumannii clinical isolate 1 assessed as inhibition of bacterial growth by CLSI protocol based method
Acinetobacter baumannii [15] = assay: Antibacterial activity against multi-drug resistant Acinetobacter baumannii clinical isolate 43 assessed as inhibition of bacterial growth by CLSI protocol based method
Escherichia coli [16] = assay: Antibacterial activity against multi-drug resistant Escherichia coli clinical isolate 1 assessed as inhibition of bacterial growth by CLSI protocol based method
Escherichia coli [17] = assay: Antibacterial activity against Escherichia coli CG-4 expressing MCR-1 and NDM-1 assessed as inhibition of bacterial growth by CLSI protocol based method

Row | Compound | MIC (Acinetobacter baumannii [1]) [µg/mL] | MIC (Escherichia coli [2]) [µg/mL] | MIC (Escherichia coli [3]) [µg/mL] | MIC (Klebsiella pneumoniae [4]) [µg/mL] | MIC (Klebsiella pneumoniae [5]) [µg/mL] | MIC (Pseudomonas aeruginosa [6]) [µg/mL] | MIC (Pseudomonas aeruginosa [7]) [µg/mL] | MIC (Acinetobacter baumannii [8]) [µg/mL] | MIC (Acinetobacter baumannii [9]) [µg/mL] | MIC (Acinetobacter baumannii [10]) [µg/mL] | MIC (Acinetobacter baumannii [11]) [µg/mL] | MIC (Acinetobacter baumannii [12]) [µg/mL] | MIC (Acinetobacter baumannii [13]) [µg/mL] | MIC (Acinetobacter baumannii [14]) [µg/mL] | MIC (Acinetobacter baumannii [15]) [µg/mL] | MIC (Escherichia coli [16]) [µg/mL] | MIC (Escherichia coli [17]) [µg/mL]
1 | CN(CCCl)c1ccc(/C=C/c2cc(C(C)(C)C)[o+]c(C(C)(C)C)c2)cc1.O=S(=O)([O-])C(F)(F)F | > 100 | > 100 | > 100 | > 100 | > 100 | > 100 | > 100 | – | – | – | – | – | – | – | – | – | –
2 | CC(C)(C)c1cc(/C=C/c2ccc(N3CCCCC3)cc2)cc(C(C)(C)C)[o+]1.O=S(=O)([O-])C(F)(F)F | 50 | > 100 | > 100 | > 100 | > 100 | > 100 | > 100 | – | – | – | – | – | – | – | – | – | –
3 | CN(C)c1ccc(/C=C/C=C/c2cc(C(C)(C)C)[o+]c(C(C)(C)C)c2)cc1.O=S(=O)([O-])C(F)(F)F | > 100 | > 100 | > 100 | > 100 | > 100 | > 100 | > 100 | – | – | – | – | – | – | – | – | – | –
4 | Cn1c(=O)n(C)c2cc(/C=C/c3cc(C(C)(C)C)[o+]c(C(C)(C)C)c3)ccc21.O=S(=O)([O-])C(F)(F)F | > 100 | > 100 | > 100 | > 100 | > 100 | > 100 | > 100 | – | – | – | – | – | – | – | – | – | –
5 | CC(C)(C)c1cc(/C=C/c2ccc3c(c2)CCO3)cc(C(C)(C)C)[o+]1.O=S(=O)([O-])C(F)(F)F | > 100 | > 100 | > 100 | > 100 | > 100 | > 100 | > 100 | – | – | – | – | – | – | – | – | – | –
6 | CC(C)(C)c1cc(NC(=O)/C=C/C=C/c2ccccc2Cl)cc(C(C)(C)C)c1 | > 100 | > 100 | > 100 | > 100 | > 100 | > 100 | > 100 | – | – | – | – | – | – | – | – | – | –
7 | CCN(CCCl)c1ccc(/C=C/c2cc(C(C)(C)C)[o+]c(C(C)(C)C)c2)cc1.O=S(=O)([O-])C(F)(F)F | > 100 | > 100 | > 100 | > 100 | > 100 | > 100 | > 100 | – | – | – | – | – | – | – | – | – | –
8 | CC(C)(C)c1cc(/C=C/c2ccc(N(CCCl)CCCl)cc2)cc(C(C)(C)C)[o+]1.O=S(=O)([O-])C(F)(F)F | > 100 | > 100 | > 100 | > 100 | > 100 | > 100 | > 100 | – | – | – | – | – | – | – | – | – | –
9 | COc1ccc(/C=C/c2cc(C(C)(C)C)[o+]c(C(C)(C)C)c2)c(Cl)c1.O=S(=O)([O-])C(F)(F)F | > 100 | > 100 | > 100 | > 100 | > 100 | > 100 | > 100 | – | – | – | – | – | – | – | – | – | –
10 | CC(C)(C)c1cc(NC(=O)/C=C/C=C/c2ccccc2)cc(C(C)(C)C)c1 | > 100 | > 100 | > 100 | > 100 | > 100 | > 100 | > 100 | – | – | – | – | – | – | – | – | – | –
11 | CCOc1ccc(/C=C/c2cc(C(C)(C)C)[o+]c(C(C)(C)C)c2)cc1OC.O=S(=O)([O-])C(F)(F)F | > 100 | > 100 | > 100 | > 100 | > 100 | > 100 | > 100 | – | – | – | – | – | – | – | – | – | –
12 | CNC(C)[C@@H]1CC[C@@H](N)[C@@H](O[C@H]2[C@H](O)[C@@H](O[C@H]3OC[C@](C)(O)[C@H](NC)[C@H]3O)[C@H](N)C[C@@H]2N)O1.CN[C@@H]1[C@@H](O)[C@@H](O[C@@H]2[C@@H](O)[C@H](O[C@H]3O[C@H](C(C)N)CC[C@H]3N)[C@@H](N)C[C@H]2N)OC[C@]1(C)O.CN[C@@H]1[C@@H](O)[C@@H](O[C@@H]2[C@@H](O)[C@H](O[C@H]3O[C@H](CN)CC[C@H]3N)[C@@H](N)C[C@H]2N)OC[C@]1(C)O (stereo not given in full) | 0.78 | – | – | 6.25 | 1.56 | 0.78 | 0.2 | > 100 | > 100 | > 100 | > 100 | > 100 | > 100 | > 100 | > 100 | – | –
13 | CC(C)Oc1ccc(/C=C/c2cc(C(C)(C)C)[o+]c(C(C)(C)C)c2)cc1.O=S(=O)([O-])C(F)(F)F | > 100 | > 100 | > 100 | > 100 | > 100 | > 100 | > 100 | – | – | – | – | – | – | – | – | – | –
14 | NCC[C@H](O)C(=O)N[C@@H]1C[C@H](N)[C@@H](O[C@H]2O[C@H](CN)[C@@H](O)[C@H](O)[C@H]2O)[C@H](O)[C@H]1O[C@H]1O[C@H](CO)[C@@H](O)[C@H](N)[C@H]1O [AMIKACIN] | 0.78 (≈ 1.33 µM) | 6.25 (≈ 10.7 µM) | 1.56 (≈ 2.66 µM) | 0.78 (≈ 1.33 µM) | 50 (≈ 85.4 µM) | 0.78 (≈ 1.33 µM) | 0.2 (≈ 0.342 µM) | > 100 | > 100 | > 100 | > 100 | > 100 | 50 (≈ 85.4 µM) | > 100 | > 100 | > 100 | 100 (≈ 171 µM)
15 | CC(C)(C)c1cc(/C=C/c2ccc(N(c3ccccc3)c3ccccc3)cc2)cc(C(C)(C)C)[o+]1.O=S(=O)([O-])C(F)(F)F | > 100 | > 100 | > 100 | > 100 | > 100 | > 100 | > 100 | – | – | – | – | – | – | – | – | – | –
16 | CC(=O)OCCN(CCOC(C)=O)c1ccc(/C=C/c2cc(C(C)(C)C)[o+]c(C(C)(C)C)c2)cc1.O=S(=O)([O-])C(F)(F)F | > 100 | > 100 | > 100 | > 100 | > 100 | > 100 | > 100 | – | – | – | – | – | – | – | – | – | –
17 | CC(C)(C)c1cc(/C=C/c2ccc(N3CCOCC3)cc2)cc(C(C)(C)C)[o+]1.O=S(=O)([O-])C(F)(F)F | > 100 | > 100 | > 100 | > 100 | > 100 | > 100 | > 100 | – | – | – | – | – | – | – | – | – | –
18 | CCn1c2ccccc2c2cc(/C=C/c3cc(C(C)(C)C)[o+]c(C(C)(C)C)c3)ccc21.O=S(=O)([O-])C(F)(F)F | > 100 | > 100 | > 100 | > 100 | > 100 | > 100 | > 100 | – | – | – | – | – | – | – | – | – | –
19 | CN(CCC#N)c1ccc(/C=C/c2cc(C(C)(C)C)[o+]c(C(C)(C)C)c2)cc1.O=S(=O)([O-])C(F)(F)F | > 100 | > 100 | > 100 | > 100 | > 100 | > 100 | > 100 | – | – | – | – | – | – | – | – | – | –
20 | CC(C)(C)c1cc(NC(=O)/C=C/c2cc3ccccc3o2)cc(C(C)(C)C)c1 | > 100 | > 100 | > 100 | > 100 | > 100 | > 100 | > 100 | – | – | – | – | – | – | – | – | – | –
21 | CCCCN(CCCC)c1ccc(/C=C/c2cc(C(C)(C)C)[o+]c(C(C)(C)C)c2)cc1.O=S(=O)([O-])C(F)(F)F | > 100 | > 100 | > 100 | > 100 | > 100 | > 100 | > 100 | – | – | – | – | – | – | – | – | – | –
22 | CCCN(CCC)c1ccc(/C=C/c2cc(C(C)(C)C)[o+]c(C(C)(C)C)c2)cc1.O=S(=O)([O-])C(F)(F)F | > 100 | > 100 | > 100 | > 100 | > 100 | > 100 | > 100 | – | – | – | – | – | – | – | – | – | –
